Reference: patent US20240246960A1 (adMare Therapeutics Society, priority 2021, published 2024)
Where two headings read alike, the source gives them in different places.

Tests used:
[1] = Microsomal stability assay, mouse liver microsomes; settings: for microsomal CLint at 0.1 uM: male, CD-1, mouse, liver microsomes, pH 7.4, Microsomal Stability Mouse Clint
[2] = Microsomal stability assay, human liver microsomes; format: in vitro ADME; settings: for microsomal CLint at 0.1 uM: both sexes, human, liver microsomes
Procedure: Samples were then mixed and centrifuged. Supernatants were used for HPLC-MS/MS analysis. […] Peak areas corresponding to the test compound were recorded.

[3] = target: T1, DNA-PK phosphorylation at Serine 2056 (Homo sapiens, UniProt P78527); assay: Cellular Assay for Inhibition of DNA-PK Phosphorylation at Serine 2056 (FaDu cells, neocarzinostatin, sandwich ELISA); format: cell-based
T1 construct: host or cells: FaDu
How it was run: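 FaDu cells were pretreated with compound (0.3% DMSO) for 1 h, then exposed to neocarzinostatin at 1 μg/mL final for 2 h to induce DSBs. Protein-normalized lysates were assayed by MSD sandwich ELISA for total and pSer2056 DNA-PK. IC50 came from variable-slope fits of % inhibition relative to DMSO and NCS controls.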

[4] = target: T2, pDNA-PK ser2056 induction in HCT116 spheroids (Homo sapiens, UniProt P78527); assay: Multicellular tumour spheroid + radiation, pDNA-PK inhibition, HCT116; format: cell-based; settings: 20 Gy, 20% O2
T2 construct: endogenous in cells; host or cells: HCT116 multicellular tumour spheroids
How it was run: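 HCT116 spheroids (~0.5 mm) in MEM/10% FBS/10 mM glucose, 20% O2, 37 °C, pre-incubated 1 h with compound (10 or 5 μM down to 3.5 nM), irradiated 20 Gy, incubated 2 h more. Cryosections immunostained for pDNA-PK ser2056; EC50 (μM) for 50% reduction of radiation-induced pDNA-PK.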

DNA-PK = target: T3, DNA-PK (Homo sapiens, UniProt P78527); assay: DNA-PK Assay for Biochemical Enzymatic Inhibition (ADP Glo Kinase assay)
T3 construct: purchased Invitrogen PR9107A
How it was run: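 Human DNA-PK (25 ng) preincubated 15 min with compounds (ten three-fold dilutions) in HEPES pH 7.5, MgCl2, KCl, calf thymus DNA buffer, then substrate 434.4 μM and ATP 64.4 μM (final) for 60 min at room temperature. ADP-Glo luminescence; percent inhibition fitted by four-parameter regression for IC50.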

[5] = Hepatocyte stability assay, mouse hepatocytes; format: in vitro ADME; settings: for hepatocyte CLint at 1 uM: male, CD-1, mouse, cryopreserved hepatocytes
Procedure: (§1) Cryopreserved mouse hepatocytes were obtained from a pool of 10 or more male CD-1 mice. Cryopreserved human hepatocytes were obtained from a pool of 10 or more donors of mixed gender. Final hepatocyte density was 0.7 million viable cells per mL and test compound concentration was 1 uM with a maximum of 0.01% DMSO. Cryopreserved hepatocytes were thawed, washed, and resuspended in Krebs-Heinslet buffer (pH 7.3). The reaction was initiated by adding the test compound into cell suspension and incubated for 0, […], 1, 1.5, and 2 h, respectively, at 37° C./5% CO2. The reaction was stopped by adding acetonitrile into the incubation mixture. Samples were then mixed, transferred completely to another 96-well plate, and centrifuged. Supernatants were used for HPLC-MS/MS analysis. […] Peak areas corresponding to the test compound were recorded.

[6] = Hepatocyte stability assay, human hepatocytes; format: in vitro ADME; settings: both sexes, human, cryopreserved hepatocytes, pH 7.3; Example 11
Procedure: as §1

[7] = 0.1 mg/mL microsomes, 0.1 uM compound
[8] = pH 7.4, 0.1 mg/mL microsomes, 0.1 uM compound
[9] = Example 7, spheroid, cell line HCT115 [sic], read-out: EC50 (pDNA-PK inhibition, immunohistochemical endpoint)
[10] = Example 9 Study 2, read-out: Spheroid Cell line: HCT116 Immunohistochemical endpoint pDNA-PK inhibition EC50

Microsomal Stability (mouse) % rem. 60 min [1]	microsomal CLint at 0.1 uM [1, 7]	IC50 ([3]; Table 1)	EC50 [4, 9]	EC50 [4, 10]	IC50 (DNA-PK; Table 1)	SMILES	further results
H (% remaining = 75-100%)	< 116 µL/min/mg	100 to 1000 nM	1000 to 10000 nM	1000 to 10000 nM	0.5 to 1 nM	O=C(N[C@H]1CC[C@@H](Oc2nc(N3CCOCC3)cc3ncccc23)CC1)c1cccnn1 [Compound 120, N-((1s,4s)-4-((7-morpholino-1,6-naphthyridin-5-yl)oxy)cyclohexyl)pyridazine-3-carboxamide]	Microsomal Stability (human) % rem. 60 min [2]: F (% remaining = 25-50%); microsomal CLint at 0.1 uM [2, 8]: > 116 µL/min/mg
F (% remaining = 25-50%)	> 116 µL/min/mg	100 to 1000 nM	1000 to 10000 nM	1000 to 10000 nM	0.5 to 1 nM	O=C(N[C@H]1CC[C@@H](Oc2nc(N3CCOCC3)cc3ncccc23)CC1)c1ncc(Cl)cn1 [Compound 124, 5-chloro-N-((1s,4s)-4-((7-morpholino-1,6-naphthyridin-5-yl)oxy)cyclohexyl)pyrimidine-2-carboxamide]	–
F (% remaining = 25-50%)	> 116 µL/min/mg	100 to 1000 nM	1000 to 10000 nM	1000 to 10000 nM	0.5 to 1 nM	Cc1ccnc(C(=O)N[C@H]2CC[C@@H](Oc3nc(N4CCOCC4)cc4ncccc34)CC2)n1 [Compound 127]	–
F (% remaining = 25-50%)	> 116 µL/min/mg	100 to 1000 nM	1000 to 10000 nM	1000 to 10000 nM	0.5 to 1 nM	Cc1cnc(C(=O)N[C@H]2CC[C@@H](Oc3nc(N4CCOCC4)cc4ncccc34)CC2)nc1 [Compound 128, 5-methyl-N-((1s,4s)-4-((7-morpholino-1,6-naphthyridin-5-yl)oxy)cyclohexyl)pyrimidine-2-carboxamide]	–
E (% remaining = 0-25%)	> 116 µL/min/mg	< 100 nM	1000 to 10000 nM	1000 to 10000 nM	0.5 to 1 nM	COc1ccnc(C(=O)N[C@H]2CC[C@@H](Oc3nc(N4CCOCC4)cc4ncccc34)CC2)n1 [Compound 131, 4-methoxy-N-((1s,4s)-4-((7-morpholino-1,6-naphthyridin-5-yl)oxy)cyclohexyl)pyrimidine-2-carboxamide]	Microsomal Stability (human) % rem. 60 min [2]: E (% remaining = 0-25%); microsomal CLint at 0.1 uM [2, 8]: > 116 µL/min/mg
E (% remaining = 0-25%)	> 116 µL/min/mg	100 to 1000 nM	1000 to 10000 nM	1000 to 10000 nM	0.5 to 1 nM	O=C(N[C@H]1CC[C@@H](Oc2nc(N3CCOCC3)cc3ncccc23)CC1)n1cccn1 [Compound 136, N-((1s,4s)-4-((7-morpholino-1,6-naphthyridin-5-yl)oxy)cyclohexyl)-1H-pyrazole-1-carboxamide]	–
E (% remaining = 0-25%)	> 116 µL/min/mg	100 to 1000 nM	500 to 1000 nM	500 to 1000 nM	0.5 to 1 nM	O=C(N[C@H]1CC[C@@H](Oc2nc(N3CCOCC3)cc3ncccc23)CC1)c1cc[nH]n1 [Compound 138, N-((1s,4s)-4-((7-morpholino-1,6-naphthyridin-5-yl)oxy)cyclohexyl)-1H-pyrazole-3-carboxamide]	–
G (% remaining = 50-75%)	< 116 µL/min/mg	100 to 1000 nM	10000 to 100000 nM	10000 to 100000 nM	1 to 10 nM	O=C(N[C@H]1CC[C@@H](Oc2nc(N3CCOCC3)cc3ncccc23)CC1)c1scnc1Cl [Compound 139, 4-chloro-N-((1s,4s)-4-((7-morpholino-1,6-naphthyridin-5-yl)oxy)cyclohexyl)thiazole-5-carboxamide]	–
E (% remaining = 0-25%)	> 116 µL/min/mg	< 100 nM	500 to 1000 nM	500 to 1000 nM	< 0.5 nM	O=C(N[C@H]1CC[C@@H](Oc2nc(N3CCOCC3)cc3ncccc23)CC1)c1ncc[nH]1 [Compound 143, N-((1s,4s)-4-((7-morpholino-1,6-naphthyridin-5-yl)oxy)cyclohexyl)-1H-imidazole-2-carboxamide]	–
E (% remaining = 0-25%)	> 116 µL/min/mg	< 100 nM	10 to 500 nM	10 to 500 nM	0.5 to 1 nM	O=C(N[C@H]1CC[C@@H](Oc2nc(N3CCOCC3)cc3ncccc23)CC1)c1ccc[nH]1 [Compound 145]	–
E (% remaining = 0-25%)	> 116 µL/min/mg	< 100 nM	1000 to 10000 nM	1000 to 10000 nM	< 0.5 nM	Nc1cnc2cc(N3CCOCC3)nc(O[C@H]3CC[C@@H](Nc4ncccn4)CC3)c2c1 [Compound 184, 7-morpholino-5-(((1s,4s)-4-(pyrimidin-2-ylamino)cyclohexyl)oxy)-1,6-naphthyridin-3-amine]	–
–	–	100 to 1000 nM	–	–	1 to 10 nM	CN(c1cnc2cc(N3CCOCC3)nc(O[C@H]3CC[C@@H](Nc4ncccn4)CC3)c2c1)S(C)(=O)=O [Compound 197, N-methyl-N-(7-morpholino-5-(((1s,4s)-4-(pyrimidin-2-ylamino)cyclohexyl)oxy)-1,6-naphthyridin-3-yl)methanesulfonamide]	Hepatocyte Stability (mouse) % rem. 120 min ([5]; 120 min): G (% remaining = 50-75%); hepatocyte CLint at 1 uM ([5]; pH 7.3, 0.7 million cells per mL, 1 uM compound): > 8.2 µL/min/1e6 cells
E (% remaining = 0-25%)	> 116 µL/min/mg	< 100 nM	1000 to 10000 nM	1000 to 10000 nM	< 0.5 nM	COc1cnc(N[C@H]2CC[C@@H](Oc3nc(N4CCOCC4)cc4ncc(N)cc34)CC2)nc1 [Compound 202, 5-(((1s,4s)-4-((5-methoxypyrimidin-2-yl)amino)cyclohexyl)oxy)-7-morpholino-1,6-naphthyridin-3-amine]	–
–	–	–	–	–	–	CS(=O)(=O)Nc1cnc2cc(N3CCOCC3)nc(O[C@H]3CC[C@@H](NC(=O)c4ncccn4)CC3)c2c1 [LFA015, N-[4-[[3-(Methanesulfonamido)-7-morpholino-1,6-naphthyridin-5-yl]oxy]cyclohexyl]pyrimidine-2-carboxamide]	Microsomal Stability (mouse) % rem. 60 min ([1]; Example 11): H (% remaining = 75-100%); microsomal CLint at 0.1 uM ([1]; Example 11): < 116 µL/min/mg; Microsomal Stability (human) % rem. 60 min ([2]; Example 11): H (% remaining = 75-100%); microsomal CLint at 0.1 uM ([2]; pH 7.4, Example 11): < 116 µL/min/mg; IC50 ([3]; Table 2): 1000 to 10000 nM; IC50 (DNA-PK; Table 2): < 0.5 nM
–	–	–	–	–	–	CS(=O)(=O)Nc1cnc2cc(N3CCOCC3)nc(O[C@H]3CC[C@@H](n4ccnc4)CC3)c2c1 [LFA017, N-[5-(4-Imidazol-1-ylcyclohexoxy)-7-morpholino-1,6-naphthyridin-3-yl]methanesulfonamide]	hepatocyte CLint at 1 uM [6]: < 8.2 µL/min/1e6 cells; IC50 (DNA-PK; Table 2): < 0.5 nM; hepatocyte CLint at 1 uM ([5]; pH 7.3, Example 11): > 8.2 µL/min/1e6 cells
–	–	–	–	–	–	O=C(N[C@H]1CC[C@@H](Oc2nc(N3CCOCC3)cc3ncc(O)cc23)CC1)c1ncccn1 [LFA115, N-[4-[(3-Hydroxy-7-morpholino-1,6-naphthyridin-5-yl)oxy]cyclohexyl]pyrimidine-2-carboxamide]	Microsomal Stability (mouse) % rem. 60 min ([1]; Example 11): G (% remaining = 50-75%); microsomal CLint at 0.1 uM ([1]; Example 11): < 116 µL/min/mg; Microsomal Stability (human) % rem. 60 min ([2]; Example 11): G (% remaining = 50-75%); microsomal CLint at 0.1 uM ([2]; pH 7.4, Example 11): < 116 µL/min/mg; IC50 ([3]; Table 2): 100 to 1000 nM; IC50 (DNA-PK; Table 2): 0.5 to 1 nM
–	–	–	–	–	–	Oc1cnc2cc(N3CCOCC3)nc(O[C@H]3CC[C@@H](Nc4ncccn4)CC3)c2c1 [LFA117, 7-Morpholino-5-[4-(pyrimidin-2-ylamino)cyclohexoxy]-1,6-naphthyridin-3-ol]	Microsomal Stability (mouse) % rem. 60 min ([1]; Example 11): F (% remaining = 25-50%); microsomal CLint at 0.1 uM ([1]; Example 11): < 116 µL/min/mg; Microsomal Stability (human) % rem. 60 min ([2]; Example 11): H (% remaining = 75-100%); microsomal CLint at 0.1 uM ([2]; pH 7.4, Example 11): < 116 µL/min/mg; IC50 ([3]; Table 2): < 100 nM; IC50 (DNA-PK; Table 2): < 0.5 nM
